Experimental data: ChEMBL document CHEMBL1143269, “2-(6-Phenyl-1H-indazol-3-yl)-1H-benzo[d]imidazoles: design and synthesis of a potent and isoform selective PKC-zeta inhibitor” (Bioorg Med Chem Lett, 2009)

How the values were obtained:
[1] = target: T1, Protein kinase C zeta type (Homo sapiens, UniProt Q05513); test: Inhibition of human PKCzeta
T1 sequence (Q05513 whole entry): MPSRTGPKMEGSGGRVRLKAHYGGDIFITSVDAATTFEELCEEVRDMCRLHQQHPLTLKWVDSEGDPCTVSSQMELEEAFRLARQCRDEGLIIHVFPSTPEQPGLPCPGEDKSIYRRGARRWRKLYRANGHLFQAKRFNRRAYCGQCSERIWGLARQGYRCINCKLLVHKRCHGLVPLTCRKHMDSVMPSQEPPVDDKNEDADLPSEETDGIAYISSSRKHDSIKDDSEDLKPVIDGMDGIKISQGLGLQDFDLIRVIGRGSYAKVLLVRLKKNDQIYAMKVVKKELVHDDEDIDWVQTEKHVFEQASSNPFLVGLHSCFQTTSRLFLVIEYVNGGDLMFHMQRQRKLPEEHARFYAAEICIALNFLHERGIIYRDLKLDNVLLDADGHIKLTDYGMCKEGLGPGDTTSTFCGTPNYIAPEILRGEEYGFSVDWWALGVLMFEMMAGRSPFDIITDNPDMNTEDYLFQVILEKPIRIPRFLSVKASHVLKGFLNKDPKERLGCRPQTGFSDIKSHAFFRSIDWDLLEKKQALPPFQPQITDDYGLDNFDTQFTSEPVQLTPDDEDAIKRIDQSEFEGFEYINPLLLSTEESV

[2] = target: Cyclin-dependent kinase 2 (Homo sapiens, UniProt P24941); test: Inhibition of human CDK2
Homo sapiens = species on record: Homo sapiens; test: Selectivity ratio of IC50 for human CDK2 to IC50 for human PKCzeta
[3] = target: Receptor-type tyrosine-protein kinase FLT3 (Homo sapiens) (UniProt P36888); test: Inhibition of Flt3 at 10 uM
[4] = target: Rho-associated protein kinase 2 (Homo sapiens) (UniProt O75116); test: Inhibition of Rock2 at 10 uM
[5] = target: Tyrosine-protein kinase Fes/Fps (Homo sapiens) (UniProt P07332); test: Inhibition of Fes at 10 uM
[6] = target: RAF proto-oncogene serine/threonine-protein kinase (Homo sapiens) (UniProt P04049); test: Inhibition of c-Raf at 10 uM
[7] = target: Ephrin type-B receptor 4 (Homo sapiens) (UniProt P54760); test: Inhibition of EphB4 at 10 uM
[8] = target: Proto-oncogene tyrosine-protein kinase Src (Homo sapiens) (UniProt P12931); test: Inhibition of Src at 10 uM
[9] = target: Tyrosine-protein kinase Lck (Homo sapiens) (UniProt P06239); test: Inhibition of Lck at 10 uM
[10] = Inhibition of CK2 at 10 uM
[11] = target: RAC-alpha serine/threonine-protein kinase (Homo sapiens) (UniProt P31749); test: Inhibition of PKB alpha at 10 uM
[12] = Inhibition of PKA at 10 uM
[13] = target: Aurora kinase A (Homo sapiens) (UniProt O14965); test: Inhibition of Aurora A at 10 uM
[14] = target: Proto-oncogene tyrosine-protein kinase receptor Ret (Homo sapiens) (UniProt P07949); test: Inhibition of Ret at 10 uM
[15] = target: ALK tyrosine kinase receptor (Homo sapiens) (UniProt Q9UM73); test: Inhibition of ALK at 10 uM
[16] = target: RAC-beta serine/threonine-protein kinase (Homo sapiens) (UniProt P31751); test: Inhibition of PKB beta at 10 uM
[17] = target: Tyrosine-protein kinase ABL1 (Homo sapiens) (UniProt P00519); test: Inhibition of Abl at 10 uM
[18] = target: Insulin-like growth factor 1 receptor (Homo sapiens) (UniProt P08069); test: Inhibition of IGF1R at 10 uM
[19] = Inhibition of rat CAMK2 at 10 uM
[20] = target: Glycogen synthase kinase-3 beta (Homo sapiens) (UniProt P49841); test: Inhibition of GSK3-beta at 10 uM
[21] = target: Tyrosine-protein kinase SYK (Homo sapiens) (UniProt P43405); test: Inhibition of Syk at 10 uM
[22] = target: Insulin receptor (Homo sapiens) (UniProt P06213); test: Inhibition of insulin receptor at 10 uM
[23] = target: Platelet-derived growth factor receptor beta (Homo sapiens) (UniProt P09619); test: Inhibition of PDGFRbeta at 10 uM
[24] = target: Tyrosine-protein kinase Fyn (Homo sapiens) (UniProt P06241); test: Inhibition of Fyn at 10 uM
[25] = target: Ribosomal protein S6 kinase beta-1 (Homo sapiens) (UniProt P23443); test: Inhibition of P70S6K at 10 uM
[26] = target: Dual specificity mitogen-activated protein kinase kinase 1 (Homo sapiens) (UniProt Q02750); test: Inhibition of MEK1 at 10 uM
[27] = target: Serine/threonine-protein kinase Chk1 (Homo sapiens) (UniProt O14757); test: Inhibition of CHK1 at 10 uM
[28] = target: Tyrosine-protein kinase receptor UFO (Homo sapiens) (UniProt P30530); test: Inhibition of Axl at 10 uM
Mus musculus = species on record: Mus musculus; test: Inhibition of mouse MKK4 at 10 uM
[29] = target: Tyrosine-protein kinase CSK (Homo sapiens) (UniProt P41240); test: Inhibition of CSK at 10 uM
[30] = target: Epidermal growth factor receptor (Homo sapiens) (UniProt P00533); test: Inhibition of EGFR at 10 uM
[31] = target: RAC-gamma serine/threonine-protein kinase (Homo sapiens) (UniProt Q9Y243); test: Inhibition of PKB gamma at 10 uM
[32] = target: Cytoplasmic tyrosine-protein kinase BMX (Homo sapiens) (UniProt P51813); test: Inhibition of Bmx at 10 uM
[33] = target: Angiopoietin-1 receptor (Homo sapiens) (UniProt Q02763); test: Inhibition of Tie2 at 10 uM
[34] = target: Tyrosine-protein kinase ZAP-70 (Homo sapiens) (UniProt P43403); test: Inhibition of Zap70 at 10 uM
[35] = target: BDNF/NT-3 growth factors receptor (Homo sapiens) (UniProt Q16620); test: Inhibition of TrkB at 10 uM
[36] = target: Casein kinase I isoform delta (Rattus norvegicus) (UniProt Q06486); test: Inhibition of rat CK1delta at 10 uM
[37] = target: 3-phosphoinositide-dependent protein kinase 1 (Homo sapiens) (UniProt O15530); test: Inhibition of PDK1 at 10 uM
[38] = target: Calcium/calmodulin-dependent protein kinase type IV (Homo sapiens) (UniProt Q16566); test: Inhibition of CAMK4 at 10 uM
[39] = Inhibition of GSK3

Chain of Epidermal growth factor receptor (Homo sapiens) (P00533 whole entry): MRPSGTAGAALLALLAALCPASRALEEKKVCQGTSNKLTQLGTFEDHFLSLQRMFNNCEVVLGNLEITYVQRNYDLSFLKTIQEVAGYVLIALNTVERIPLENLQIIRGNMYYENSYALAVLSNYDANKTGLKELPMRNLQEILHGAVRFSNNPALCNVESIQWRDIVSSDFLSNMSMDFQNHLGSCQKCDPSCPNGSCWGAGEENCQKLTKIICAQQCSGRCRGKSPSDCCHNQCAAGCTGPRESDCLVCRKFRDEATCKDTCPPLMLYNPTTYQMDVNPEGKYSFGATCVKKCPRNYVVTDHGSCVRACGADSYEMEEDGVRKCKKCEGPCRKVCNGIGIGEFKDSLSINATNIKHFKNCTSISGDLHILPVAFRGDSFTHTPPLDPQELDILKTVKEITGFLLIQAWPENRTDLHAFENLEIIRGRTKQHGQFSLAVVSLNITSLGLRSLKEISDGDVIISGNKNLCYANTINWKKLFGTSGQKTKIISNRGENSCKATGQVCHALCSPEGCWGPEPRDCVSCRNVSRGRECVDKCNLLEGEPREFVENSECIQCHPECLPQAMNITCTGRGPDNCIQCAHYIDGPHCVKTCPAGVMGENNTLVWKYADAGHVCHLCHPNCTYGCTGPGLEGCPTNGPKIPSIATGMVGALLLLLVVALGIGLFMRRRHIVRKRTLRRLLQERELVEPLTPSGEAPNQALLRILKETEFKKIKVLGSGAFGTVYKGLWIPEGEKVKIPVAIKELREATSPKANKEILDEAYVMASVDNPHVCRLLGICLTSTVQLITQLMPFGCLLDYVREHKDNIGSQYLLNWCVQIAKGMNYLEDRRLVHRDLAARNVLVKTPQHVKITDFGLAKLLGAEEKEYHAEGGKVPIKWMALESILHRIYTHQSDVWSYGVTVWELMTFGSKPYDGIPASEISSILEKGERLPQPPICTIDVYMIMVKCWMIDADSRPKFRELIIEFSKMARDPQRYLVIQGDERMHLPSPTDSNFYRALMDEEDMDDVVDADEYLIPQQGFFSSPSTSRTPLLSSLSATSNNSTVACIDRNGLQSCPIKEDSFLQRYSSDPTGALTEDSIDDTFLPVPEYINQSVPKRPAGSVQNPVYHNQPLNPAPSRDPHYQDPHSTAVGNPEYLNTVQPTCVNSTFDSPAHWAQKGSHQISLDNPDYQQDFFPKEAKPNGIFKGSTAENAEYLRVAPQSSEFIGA
Chain of Dual specificity mitogen-activated protein kinase kinase 1 (Homo sapiens) (Q02750 whole entry): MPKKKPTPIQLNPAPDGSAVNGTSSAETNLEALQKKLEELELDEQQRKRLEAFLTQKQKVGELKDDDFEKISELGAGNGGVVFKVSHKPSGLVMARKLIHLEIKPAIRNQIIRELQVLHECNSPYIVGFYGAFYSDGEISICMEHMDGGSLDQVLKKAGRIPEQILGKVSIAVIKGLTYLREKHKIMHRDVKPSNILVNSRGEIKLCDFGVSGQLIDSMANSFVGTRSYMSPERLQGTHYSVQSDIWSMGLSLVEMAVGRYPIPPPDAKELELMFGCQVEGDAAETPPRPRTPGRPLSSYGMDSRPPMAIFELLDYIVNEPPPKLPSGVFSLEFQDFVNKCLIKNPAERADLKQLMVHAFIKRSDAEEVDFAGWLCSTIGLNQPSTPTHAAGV
Chain of Ribosomal protein S6 kinase beta-1 (Homo sapiens) (P23443 whole entry, looked up): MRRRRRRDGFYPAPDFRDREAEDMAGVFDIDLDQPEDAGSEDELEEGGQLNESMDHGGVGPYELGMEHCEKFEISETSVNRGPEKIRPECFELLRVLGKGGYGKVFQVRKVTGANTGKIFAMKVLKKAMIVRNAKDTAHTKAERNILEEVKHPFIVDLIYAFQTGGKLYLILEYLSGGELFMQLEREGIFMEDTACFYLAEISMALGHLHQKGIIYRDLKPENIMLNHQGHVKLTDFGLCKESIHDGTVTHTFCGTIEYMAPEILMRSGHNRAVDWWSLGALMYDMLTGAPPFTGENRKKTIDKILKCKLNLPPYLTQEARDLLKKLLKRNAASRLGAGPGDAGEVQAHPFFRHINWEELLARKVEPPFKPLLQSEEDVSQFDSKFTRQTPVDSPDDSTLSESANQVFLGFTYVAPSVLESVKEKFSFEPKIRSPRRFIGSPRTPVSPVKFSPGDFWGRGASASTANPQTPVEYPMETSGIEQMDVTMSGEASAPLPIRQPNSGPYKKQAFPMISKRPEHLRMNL
Chain of ALK tyrosine kinase receptor (Homo sapiens) (Q9UM73 19-1620 limits assumed): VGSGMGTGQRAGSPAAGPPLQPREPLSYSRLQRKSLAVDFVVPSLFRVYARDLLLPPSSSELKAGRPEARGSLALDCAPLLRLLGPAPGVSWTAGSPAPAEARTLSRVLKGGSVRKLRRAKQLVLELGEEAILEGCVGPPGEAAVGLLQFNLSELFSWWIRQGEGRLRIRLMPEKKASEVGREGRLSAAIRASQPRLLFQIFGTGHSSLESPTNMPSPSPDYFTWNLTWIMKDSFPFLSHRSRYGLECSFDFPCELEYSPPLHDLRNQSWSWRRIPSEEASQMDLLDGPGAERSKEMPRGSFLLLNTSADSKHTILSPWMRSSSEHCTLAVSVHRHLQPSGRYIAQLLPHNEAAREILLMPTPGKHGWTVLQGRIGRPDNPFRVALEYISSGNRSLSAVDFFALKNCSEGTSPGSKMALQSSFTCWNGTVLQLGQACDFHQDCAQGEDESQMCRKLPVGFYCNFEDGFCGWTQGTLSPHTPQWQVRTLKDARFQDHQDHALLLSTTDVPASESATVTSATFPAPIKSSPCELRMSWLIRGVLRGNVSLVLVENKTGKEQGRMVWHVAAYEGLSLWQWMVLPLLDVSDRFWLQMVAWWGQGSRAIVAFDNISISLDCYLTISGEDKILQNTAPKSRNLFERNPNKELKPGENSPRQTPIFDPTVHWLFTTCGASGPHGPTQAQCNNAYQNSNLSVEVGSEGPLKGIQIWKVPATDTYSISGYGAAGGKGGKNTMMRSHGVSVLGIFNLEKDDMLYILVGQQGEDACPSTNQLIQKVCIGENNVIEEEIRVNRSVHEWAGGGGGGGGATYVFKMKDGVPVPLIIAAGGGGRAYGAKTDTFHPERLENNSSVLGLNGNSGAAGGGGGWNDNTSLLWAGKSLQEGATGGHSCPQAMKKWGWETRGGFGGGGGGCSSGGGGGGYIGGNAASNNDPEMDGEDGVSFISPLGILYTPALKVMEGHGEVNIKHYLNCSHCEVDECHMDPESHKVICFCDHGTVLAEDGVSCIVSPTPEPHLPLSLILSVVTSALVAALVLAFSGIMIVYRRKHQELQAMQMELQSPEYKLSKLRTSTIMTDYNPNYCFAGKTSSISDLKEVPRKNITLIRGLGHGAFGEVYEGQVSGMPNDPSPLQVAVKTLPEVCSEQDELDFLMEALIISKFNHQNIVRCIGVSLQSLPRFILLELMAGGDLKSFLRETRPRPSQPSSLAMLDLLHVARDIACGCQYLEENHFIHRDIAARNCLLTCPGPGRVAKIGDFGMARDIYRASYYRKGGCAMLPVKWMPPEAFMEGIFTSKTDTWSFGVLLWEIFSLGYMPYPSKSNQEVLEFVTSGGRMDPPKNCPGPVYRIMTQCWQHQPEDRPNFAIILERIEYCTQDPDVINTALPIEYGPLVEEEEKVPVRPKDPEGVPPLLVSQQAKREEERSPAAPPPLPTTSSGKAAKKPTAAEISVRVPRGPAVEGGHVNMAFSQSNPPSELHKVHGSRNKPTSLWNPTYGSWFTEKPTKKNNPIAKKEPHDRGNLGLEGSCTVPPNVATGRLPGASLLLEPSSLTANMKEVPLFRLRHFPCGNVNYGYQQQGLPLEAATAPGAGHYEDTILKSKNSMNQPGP
Chain of Serine/threonine-protein kinase Chk1 (Homo sapiens) (O14757 whole entry): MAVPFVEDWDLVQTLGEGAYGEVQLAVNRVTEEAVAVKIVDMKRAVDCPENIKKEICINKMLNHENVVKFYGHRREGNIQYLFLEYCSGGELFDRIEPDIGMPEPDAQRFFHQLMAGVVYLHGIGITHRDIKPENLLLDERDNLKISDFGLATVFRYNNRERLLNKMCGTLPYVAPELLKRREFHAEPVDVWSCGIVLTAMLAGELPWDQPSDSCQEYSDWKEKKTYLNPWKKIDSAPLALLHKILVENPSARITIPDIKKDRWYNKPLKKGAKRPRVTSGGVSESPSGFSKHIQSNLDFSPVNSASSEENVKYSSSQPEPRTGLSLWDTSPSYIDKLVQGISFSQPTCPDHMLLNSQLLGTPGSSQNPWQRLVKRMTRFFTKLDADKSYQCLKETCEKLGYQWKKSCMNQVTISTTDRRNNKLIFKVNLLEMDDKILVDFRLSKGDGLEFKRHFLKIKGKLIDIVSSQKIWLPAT
Chain of Tyrosine-protein kinase Fes/Fps (Homo sapiens) (P07332 whole entry): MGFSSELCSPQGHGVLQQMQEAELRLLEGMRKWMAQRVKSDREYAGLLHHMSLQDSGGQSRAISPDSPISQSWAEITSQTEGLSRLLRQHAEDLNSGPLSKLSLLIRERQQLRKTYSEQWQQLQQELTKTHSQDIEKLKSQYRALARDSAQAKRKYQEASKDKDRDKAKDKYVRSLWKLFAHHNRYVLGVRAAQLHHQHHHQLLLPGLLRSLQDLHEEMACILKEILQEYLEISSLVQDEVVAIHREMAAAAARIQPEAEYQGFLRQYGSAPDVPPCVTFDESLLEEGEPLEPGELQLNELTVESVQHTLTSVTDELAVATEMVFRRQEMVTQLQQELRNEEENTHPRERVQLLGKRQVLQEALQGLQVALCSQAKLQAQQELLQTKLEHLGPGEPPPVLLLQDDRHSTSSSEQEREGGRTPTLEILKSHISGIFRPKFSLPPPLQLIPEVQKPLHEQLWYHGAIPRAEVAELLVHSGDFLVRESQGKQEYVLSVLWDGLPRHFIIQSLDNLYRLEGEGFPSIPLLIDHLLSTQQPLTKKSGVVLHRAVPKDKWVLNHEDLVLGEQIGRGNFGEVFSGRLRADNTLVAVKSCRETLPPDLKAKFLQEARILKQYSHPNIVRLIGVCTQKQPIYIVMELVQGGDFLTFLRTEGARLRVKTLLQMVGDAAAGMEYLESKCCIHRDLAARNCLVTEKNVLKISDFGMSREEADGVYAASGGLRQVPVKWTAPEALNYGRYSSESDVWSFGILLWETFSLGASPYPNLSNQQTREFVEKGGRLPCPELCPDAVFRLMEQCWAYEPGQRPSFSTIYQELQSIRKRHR

Compound: CC(=O)Nc1ccc(-c2ccc3c(-c4nc5c(N6CCN(C)CC6)cccc5[nH]4)n[nH]c3c2)cc1
- IC50 [1]: 8.8 µM
- IC50 [2]: 10 µM
- Ratio IC50 (Homo sapiens): 1.1

Compound: CC(=O)c1ccc(-c2ccc3c(-c4nc5c(N6CCN(C)CC6)cccc5[nH]4)n[nH]c3c2)cc1
- IC50 [2]: 10 µM

Compound: COc1cc(-c2ccc3c(-c4nc5c(N6CCN(C)CC6)cccc5[nH]4)n[nH]c3c2)ccc1O
- IC50 [1]: 0.00226 µM
- IC50 [2]: 0.0041 µM
- Ratio IC50 (Homo sapiens): 1.8

Compound: CN1CCN(c2cccc3[nH]c(-c4n[nH]c5cc(-c6ccc(C(=O)O)cc6)ccc45)nc23)CC1
- IC50 [2]: 10 µM

Compound: CN1CCN(c2cccc3[nH]c(-c4n[nH]c5cc(-c6ccc(O)cc6)ccc45)nc23)CC1
- IC50 [2]: 0.0133 µM

Compound: CN1CCN(c2cccc3[nH]c(-c4n[nH]c5cc(-c6cccc(N)c6)ccc45)nc23)CC1
- IC50 [1]: 1.51 µM
- IC50 [2]: 6.1 µM
- Ratio IC50 (Homo sapiens): 4

Compound: COc1ccc(-c2ccc3c(-c4nc5c(N6CCN(C)CC6)cccc5[nH]4)n[nH]c3c2)c(OC)c1
- IC50 [2]: 10 µM

Compound: CNc1ccc(-c2ccc3c(-c4nc5c(N6CCN(C)CC6)cccc5[nH]4)n[nH]c3c2)cc1
- IC50 [2]: 109 µM

Compound: COc1cc(O)ccc1-c1ccc2c(-c3nc4c(N5CCN(C)CC5)cccc4[nH]3)n[nH]c2c1
- inhibition [3]: < 50%
- inhibition [4]: < 50%
- inhibition [5]: < 50%
- inhibition [6]: < 50%
- inhibition [7]: < 50%
- inhibition [8]: < 50%
- inhibition [9]: < 50%
- inhibition [10]: < 50%
- inhibition [11]: < 50%
- inhibition [12]: < 50%
- inhibition [13]: < 50%
- inhibition [14]: < 50%
- inhibition [15]: < 50%
- inhibition [16]: < 50%
- inhibition [17]: < 50%
- inhibition [18]: < 50%
- IC50 [2]: 0.102 µM
- inhibition [19]: < 50%
- inhibition [20]: < 50%
- inhibition [21]: < 50%
- inhibition [22]: < 50%
- inhibition [23]: < 50%
- inhibition [24]: < 50%
- inhibition [25]: < 50%
- inhibition [26]: < 50%
- inhibition [27]: < 50%
- inhibition [28]: < 50%
- inhibition (Mus musculus): < 50%
- inhibition [29]: < 50%
- inhibition [30]: < 50%
- inhibition [31]: < 50%
- inhibition [32]: < 50%
- inhibition [33]: < 50%
- inhibition [34]: < 50%
- inhibition [35]: < 50%
- inhibition [36]: < 50%
- inhibition [37]: < 50%
- inhibition [38]: < 50%

Compound: CN1CCN(c2cccc3[nH]c(-c4n[nH]c5cc(-c6ccc(N(C)C)cc6)ccc45)nc23)CC1
- IC50 [1]: 1.31 µM

Compound: COc1cc(F)ccc1-c1ccc2c(-c3nc4c(N5CCN(C)CC5)cccc4[nH]3)n[nH]c2c1
- IC50 [1]: 19 µM
- IC50 [2]: 10 µM
- Ratio IC50 (Homo sapiens): 0.5

Compound: COc1cc(-c2ccc3c(-c4nc5c(N6CCN(C)CC6)cccc5[nH]4)n[nH]c3c2)ccc1N
- IC50 [2]: 0.247 µM

Compound: CN1CCN(c2cccc3nc(-c4n[nH]c5cc(-c6ccc(N)cc6)ccc45)[nH]c23)CC1
- inhibition [3]: < 50%
- inhibition [4]: < 50%
- inhibition [5]: < 50%
- inhibition [6]: < 50%
- inhibition [7]: < 50%
- inhibition [8]: < 50%
- inhibition [9]: < 50%
- inhibition [10]: < 50%
- inhibition [11]: < 50%
- inhibition [12]: < 50%
- inhibition [13]: < 50%
- inhibition [14]: < 50%
- inhibition [15]: < 50%
- inhibition [16]: < 50%
- inhibition [17]: < 50%
- inhibition [18]: < 50%
- inhibition [19]: < 50%
- inhibition [20]: < 50%
- inhibition [21]: < 50%
- inhibition [22]: < 50%
- inhibition [23]: < 50%
- inhibition [24]: < 50%
- inhibition [25]: < 50%
- inhibition [26]: < 50%
- inhibition [27]: < 50%
- inhibition [28]: < 50%
- inhibition (Mus musculus): < 50%
- inhibition [29]: < 50%
- inhibition [30]: < 50%
- inhibition [31]: < 50%
- inhibition [32]: < 50%
- inhibition [33]: < 50%
- inhibition [34]: < 50%
- inhibition [35]: < 50%
- inhibition [36]: < 50%
- inhibition [37]: < 50%
- inhibition [38]: < 50%

Compound: CN1CCN(c2cccc3[nH]c(-c4n[nH]c5cc(-c6ccc7c[nH]nc7c6)ccc45)nc23)CC1
- IC50 [1]: 1.07 µM

Compound: CN1CCN(c2cccc3[nH]c(-c4n[nH]c5cc(-c6ccc(S(N)(=O)=O)cc6)ccc45)nc23)CC1
- IC50 [1]: 8.93 µM

Compound: CN1CCN(c2cccc3[nH]c(-c4n[nH]c5cc(-c6ccc(CO)cc6)ccc45)nc23)CC1
- IC50 [2]: 21.5 µM

Compound: CN1CCN(c2cccc3[nH]c(-c4n[nH]c5cc(-c6ccc(N)c(F)c6)ccc45)nc23)CC1
- IC50 [2]: 1.73 µM

Compound: O=C(NC1CC1)c1n[nH]c2cc(-c3ccc(O)cc3)c(Br)cc12
- IC50 [39]: 0.0008 µM
- IC50 [2]: 0.005 µM

Compound: CN1CCN(c2cccc3[nH]c(-c4n[nH]c5cc(-c6ccc7[nH]ccc7c6)ccc45)nc23)CC1
- IC50 [1]: 4.08 µM
- IC50 [2]: 10 µM
- Ratio IC50 (Homo sapiens): 2.5

Compound: COc1ccccc1-c1ccc2c(-c3nc4c(N5CCN(C)CC5)cccc4[nH]3)n[nH]c2c1
- IC50 [1]: 5.52 µM
- IC50 [2]: 10 µM
- Ratio IC50 (Homo sapiens): 1.8

Compound: CN1CCN(c2cccc3[nH]c(-c4n[nH]c5cc(-c6ccc(CN)cc6)ccc45)nc23)CC1
- IC50 [2]: 10 µM
